Test system: enteroendocrine STC1-1 cell line
Experiment: not given
Conditions: negative control fatty acid; cited from earlier work

Compound | Induction of CCK (already known)
CCCCCCCCCC(=O)O [Capric acid] | does not induce CCK

Test system: enteroendocrine STC1-1 cell line
Experiment: CCK release from intestinal cells (in-vitro trial, CCK RIA)
Assay type: cell-based
Parameters: CCK release (Effects of fatty acids on CCK release): unit not given here
Conditions: 100 μM, 1 hour
Protocol: The relative CCK release by a number of different compounds was determined in an in-vitro trial to measure the effect of various free fatty acids on CCK release from intestinal cells.
The enteroendocrine STC1-1 cell line was cultivated at 37° C. in a 5% CO2, 95% air atmosphere in standard culture medium (DMEM). Cells were routinely passaged upon reaching 70-80% confluency by washing the cell layer with PBS and incubating with a solution of trypsin-EDTA. Plating density of 2×10^6 cells by 75 cm^2 was used for routine subculture.
STC1 cells were seeded into 6-well culture plates and incubated with control culture medium, with or without the tested agents, for 1 hour. All agents were tested at a 100 μM concentration in the free fatty acid form. Since fatty acids were diluted into ethanol the effect of ethanol was tested and indicated the baseline CCK levels. […] Effects of bombesin was used as positive control. At the end of incubation the supernatant was collected, centrifuged and immediately frozen at −20° C. for RIA.
Cell viability was checked by microscopic analysis using an MTT cytotoxicity assay, and in addition LDH release was measured.
CCK release was measured using a standard CCK RIA and effects of fatty acids were measured in 6-fold.

Compound | CCK release compared with other fatty acids (in words)
CCCCCC=CCC=CCC=CCC=CCCCC(=O)O [Arachidonic acid (20:4), 5,8,11,14-eicosatetraenoic acid] | higher level of CCK release than other related fatty acids

Same assay, conditions: 100 microM, free fatty acid form, 1 hour incubation, RIA of supernatant, measured in 6-fold, ethanol baseline 53

Compound | CCK release (Effects of fatty acids on CCK release)
CCCC/C=C/C=C/C=C\CCCCCCCC(=O)O [Alpha-eleostearic acid (18:3), Alpha-eleostearic acid] | 212
CCCCC/C=C\C/C=C\C/C=C\CCCCC(=O)O [Gamma-linolenic acid (18:3), Gamma-linolenic acid] | 140
CCCCC/C=C\C/C=C\CCCC/C=C\CCCC(=O)O [Sciadonic acid (20:3), Sciadonic acid] | 79
conjugated linoleic acid [CLA] | 87
CCCCCCCC/C=C\CC/C=C\CCCC(=O)O [Taxoleic acid (18:2)] | 82
CCCCCCCC/C=C\CCCCCCCC(=O)O [Oleic acid (18:1), Oleic acid] | 90
CC/C=C\C/C=C\C/C=C\C/C=C\C/C=C\CCCC(=O)O [Eicosapentanoic acid (20:5), Eicosapentanoic acid] | 164
CCCC\C=C/C=C/C=C\CCCCCCCC(=O)O [Punicic acid (18:3), Punicic acid] | 320
CCCCCCCCCC(=O)O [Capric acid] | 43
CCCCC/C=C\C/C=C\CCCCCCCC(=O)O [Linoleic acid (18:2), Linoleic acid] | 68
CCCCCCCCCCCC(=O)O [Lauric acid] | 118
CC/C=C\C/C=C\C/C=C\CCCC/C=C\CCCC(=O)O [Juniperonic acid (20:4), Juniperonic acid] | 97
CCCCCC/C=C/C=C/CCCCCCCC(=O)O (single isomer, unassigned) [CLA 9, 11 isomer] | 135
CCCCC=CC=CC=CCCCCCCCC(=O)O [Gamma-eleostearic acid (18:3), Gamma-eleostearic acid] | 126
CCCCCC=CCC=CCC=CCC=CCCCC(=O)O [Arachidonic acid (20:4), 5,8,11,14-eicosatetraenoic acid] | 392
CCCCCC=CC=CCCCCCCCCC(=O)O (single isomer, unassigned) [CLA 10, 12 isomer] | 133
CC/C=C\C/C=C\C/C=C\CCCCCCCC(=O)O [Alpha-linolenic acid (18:3), Alpha-linolenic acid] | 177
CC/C=C\C/C=C\C/C=C\C/C=C\CCCCC(=O)O [Stearidonic acid (18:4), Stearidonic acid] | 69

From patent US20090203780A1, “Use of a Polyunsaturated Fatty Acid Compound” (priority 2006, published 2009)
